Experimental data taken from PubChem BioAssay AID330 (DTP/NCI, 2004).
Where “and” joins values, the source holds several entries; their conditions need not be identical. Equal values may be shown once. Toxic doses and inconclusive results are not listed. Numbered stars: 1 amine (or outer) side, 2 acyl side, 3 side chain; on linkers, the order of the positions; unused ones are H or OH. Bridge positions count the residues as written; N and C are the ends. Square brackets hold non-standard residues; d marks the D form. Peptide text beside a SMILES is read from it. I, II: the chains in the order shown. Actinocin(9to1) = Cc1c2oc3c(C)ccc(C(=O)[*:1])c3nc-2c(C(=O)[*:2])c(N)c1=O; NMeV = CN[CH](C(=O)O)C(C)C; Sar = CNCC(=O)O

System: P388 leukemia ip, CD2F1 mice, survival T/C
Experiment: NCI In Vivo Anticancer Drug Screen. Data for tumor model P388 Leukemia (intraperitoneal) in CD2F1 (CDF1) mice
Conditions: endpoint: median survival time, higher = longer survival
Outline: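 Mice carrying the transplanted tumor received test compound or vehicle. Survival was recorded in each group, and the value is the treated-group measurement divided by that of the vehicle-treated control group.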

[1] = dose: 50.0 mg/kg/injection, schedule: Q01DX009 (ip), vehicle: saline
[2] = dose: 100.0 mg/kg/injection, schedule: Q01DX009 (ip), vehicle: saline
[3] = dose: 200.0 mg/kg/injection, schedule: Q01DX009 (ip), vehicle: saline
[4] = dose: 50.0 mg/kg/injection, schedule: Q04DX003 (ip), vehicle: saline with Tween-80
[5] = dose: 200.0 mg/kg/injection, schedule: Q04DX003 (ip), vehicle: saline with Tween-80
[6] = dose: 50.0 mg/kg/injection, schedule: Q01DX005 (ip), vehicle: saline with Tween-80
[7] = dose: 100.0 mg/kg/injection, schedule: Q01DX005 (ip), vehicle: saline with Tween-80
[8] = dose: 200.0 mg/kg/injection, schedule: Q01DX005 (ip), vehicle: saline with Tween-80
[9] = dose: 100.0 mg/kg/injection, schedule: Q01DX009 (ip), vehicle: Klucel (hydroxypropylcellulose) (HPC)
[10] = dose: 200.0 mg/kg/injection, schedule: Q01DX009 (ip), vehicle: Klucel (hydroxypropylcellulose) (HPC)

SMILES: COc1cc(-c2nnc(SCCN(C)C)o2)cc(OC)c1OC
- T/C (dose: 50.0 mg/kg/injection, schedule: Q04DX002 (ip), vehicle: water): 100 % of control
- T/C (dose: 100.0 mg/kg/injection, schedule: Q04DX002 (ip), vehicle: water): 101 % of control
- T/C (dose: 200.0 mg/kg/injection, schedule: Q04DX002 (ip), vehicle: water): 100 % of control

SMILES: Cc1c2oc3c(C)ccc(C(=O)NC4C(=O)NC(C(C)C)C(=O)N5CCCC5C(=O)N(C)CC(=O)N(C)C(C(C)C)C(=O)OC4C)c3nc-2c(C(=O)NC2C(=O)NC(C(C)C)C(=O)N3CCCC3C(=O)N(C)CC(=O)N(C)C(C(C)C)C(=O)OC2C)c(N)c1=O (stereo unspecified) (I: TVP[Sar][NMeV] / II: TVP[Sar][NMeV]; ester I:1-I:C, II:1-II:C; linker I:N-II:N via Actinocin(9to1); configuration not given here)
- T/C (dose: 0.1 mg/kg/injection, schedule: Q01DX009 (ip), vehicle: distilled water + Tween-80): 178 % of control
- T/C (dose: 0.2 mg/kg/injection, schedule: Q01DX009 (ip), vehicle: distilled water + Tween-80): 190 % of control
- T/C (dose: 0.2 mg/kg/injection, schedule: Q01DX009 (ip), vehicle: water): 151 % of control
- T/C (dose: 0.4 mg/kg/injection, schedule: Q01DX009 (ip), vehicle: distilled water + Tween-80): 207 % of control
- T/C (dose: 0.4 mg/kg/injection, schedule: Q01DX009 (ip), vehicle: water): 174 % of control

SMILES: C[N+](C)(C)CCC(=O)c1ccco1
- T/C (dose: 6.25 mg/kg/injection, schedule: Q01DX009 (ip), vehicle: saline): 117 % of control
- T/C (dose: 12.5 mg/kg/injection, schedule: Q01DX009 (ip), vehicle: saline): 117 % of control
- T/C (dose: 25.0 mg/kg/injection, schedule: Q01DX009 (ip), vehicle: saline with Tween-80): 111 % of control
- T/C (dose: 25.0 mg/kg/injection, schedule: Q01DX009 (ip), vehicle: saline): 106 % of control

SMILES: COc1ccc(C(C)c2cc3c(cc2O)OCO3)cc1 (stereo unspecified)
- T/C (dose: 50.0 mg/kg/injection, schedule: Q01DX005 (ip), vehicle: distilled water + Tween-80): 105 % of control
- T/C (dose: 100.0 mg/kg/injection, schedule: Q01DX005 (ip), vehicle: distilled water + Tween-80): 99 % of control
- T/C (dose: 200.0 mg/kg/injection, schedule: Q01DX005 (ip), vehicle: distilled water + Tween-80): 108 % of control

SMILES: CC(=O)CC1(O)C(=O)C(C(C)(C)C)=CC2(C(C)(C)C)OC12 (stereo unspecified)
- T/C [1]: 102 % of control
- T/C [2]: 95 % of control
- T/C [3]: 95 % of control

SMILES: C[N+](C)(Cn1nc(Cl)c2cc([N+](=O)[O-])ccc21)Cn1nc(Cl)c2cc([N+](=O)[O-])ccc21
- T/C [4]: 93 % of control
- T/C [5]: 88 % of control

SMILES: O=S(=O)(O)c1cncc(S(=O)(=O)O)n1
- T/C [2]: 110 % of control
- T/C (dose: 100.0 mg/kg/injection, schedule: Q04DX003 (ip), vehicle: saline): 100 % of control
- T/C [3]: 105 % of control
- T/C (dose: 200.0 mg/kg/injection, schedule: Q04DX003 (ip), vehicle: saline): 104 % of control
- T/C (dose: 400.0 mg/kg/injection, schedule: Q01DX009 (ip), vehicle: saline): 100 % of control
- T/C (dose: 400.0 mg/kg/injection, schedule: Q04DX003 (ip), vehicle: saline): 100 % of control

SMILES: COc1ccc(OC)c2c1CCC(O)(C#N)C2 (stereo unspecified)
- T/C (dose: 3.13 mg/kg/injection, schedule: Q01DX009 (ip), vehicle: other): 100 % of control and 101 % of control
- T/C (dose: 6.25 mg/kg/injection, schedule: Q01DX009 (ip), vehicle: other): 100 % of control and 102 % of control
- T/C (dose: 12.5 mg/kg/injection, schedule: Q01DX009 (ip), vehicle: other): 101 % of control

SMILES: C1=C2CCc3ccc(o3)CCC(=C1)O2
- T/C [6]: 100 % of control
- T/C [7]: 94 % of control
- T/C [8]: 93 % of control

SMILES: N#C/C(=C\c1cccc2ccccc12)c1ccc(Cl)cc1
- T/C [4]: 94 % of control
- T/C (dose: 100.0 mg/kg/injection, schedule: Q04DX003 (ip), vehicle: saline with Tween-80): 97 % of control
- T/C [5]: 103 % of control
- T/C (dose: 400.0 mg/kg/injection, schedule: Q04DX003 (ip), vehicle: saline with Tween-80): 97 % of control

SMILES: CCCCCCCCCCCCOC(=O)c1ccc(Br)cc1
- T/C [9]: 104 % of control
- T/C [10]: 102 % of control

SMILES: O=C(Nc1cccc2c1C(=O)c1c(NC(=O)c3ccccc3)ccc(Nc3cccc4c3C(=O)c3ccccc3C4=O)c1C2=O)c1ccccc1
- T/C [6]: 100 % of control
- T/C [7]: 103 % of control
- T/C [8]: 103 % of control

SMILES: O=C1CC=C2C3CC4N(CCC45c4cc(O)c(O)cc4N1C25)C/C3=C\CBr (stereo unspecified)
- T/C (dose: 7.5 mg/kg/injection, schedule: Q01DX005 (ip), vehicle: Klucel (hydroxypropylcellulose) (HPC)): 106 % of control
- T/C (dose: 15.0 mg/kg/injection, schedule: Q01DX005 (ip), vehicle: Klucel (hydroxypropylcellulose) (HPC)): 108 % of control
- T/C (dose: 30.0 mg/kg/injection, schedule: Q01DX005 (ip), vehicle: Klucel (hydroxypropylcellulose) (HPC)): 123 % of control

SMILES: C1CCC2(CC1)SC1(CCCCC1)SC1(CCCCC1)S2
- T/C (dose: 100.0 mg/kg/injection, schedule: Q04DX003 (ip), vehicle: other): 100 % of control
- T/C (dose: 200.0 mg/kg/injection, schedule: Q04DX003 (ip), vehicle: other): 90 % of control
- T/C (dose: 400.0 mg/kg/injection, schedule: Q04DX003 (ip), vehicle: other): 95 % of control

SMILES: CC(C)=CCC[C@](C)(O[C@@H]1O[C@H](CO)[C@@H](O)[C@H](O)[C@H]1O)[C@H]1CC[C@]2(C)[C@@H]1[C@H](O)C[C@@H]1[C@@]3(C)CC[C@H](O)C(C)(C)[C@@H]3[C@@H](O[C@@H]3O[C@H](CO)[C@@H](O)[C@H](O)[C@H]3O)C[C@]12C
- T/C [1]: 105 % of control
- T/C [2]: 106 % of control
- T/C [3]: 106 % of control

SMILES: COc1cc(OC)cc(C2OC(=O)c3c(OC)cc(C)cc32)c1 (stereo unspecified)
- T/C (dose: 100.0 mg/kg/injection, schedule: Q04DX002 (ip), vehicle: saline with Tween-80): 93 % of control
- T/C (dose: 200.0 mg/kg/injection, schedule: Q04DX002 (ip), vehicle: saline with Tween-80): 88 % of control
- T/C (dose: 400.0 mg/kg/injection, schedule: Q04DX002 (ip), vehicle: saline with Tween-80): 90 % of control

SMILES: CC1OC(Nc2ncnc3nc[nH]c23)C(O)C(O)C1NC(=O)CNC(=O)CCCCCCCCC/C=C\C(C)(C)C (stereo unspecified)
- T/C (dose: 0.25 mg/kg/injection, schedule: Q01DX009 (ip), vehicle: distilled water + Tween-80): 113 % of control
- T/C (dose: 0.5 mg/kg/injection, schedule: Q01DX009 (ip), vehicle: distilled water + Tween-80): 113 % of control and 123 % of control
- T/C (dose: 4.0 mg/kg/injection, schedule: Q01DX009 (ip), vehicle: distilled water + Tween-80): 100 % of control

SMILES: ClC1=CC=c2ccc3c(c2[N-]1)[N-]C(Cl)=CC=3.ClC1=CC=c2ccc3c(c2[N-]1)[N-]C(Cl)=CC=3.O=[N+]([O-])O.[Cu+]
- T/C (dose: 6.25 mg/kg/injection, schedule: Q04DX002 (ip), vehicle: suspension in saline): 101 % of control
- T/C (dose: 12.5 mg/kg/injection, schedule: Q04DX002 (ip), vehicle: suspension in saline): 93 % of control
- T/C (dose: 25.0 mg/kg/injection, schedule: Q04DX002 (ip), vehicle: suspension in saline): 98 % of control

SMILES: Nc1nc2c(c(=O)[nH]1)NC(CN(C=O)c1ccc(C(=O)NC(CCC(=O)O)C(=O)O)cc1)CC2 (stereo unspecified)
- T/C (dose: 50.0 mg/kg/injection, schedule: Q01DX001 (ip), vehicle: saline): 99 % of control
- T/C (dose: 100.0 mg/kg/injection, schedule: Q01DX001 (ip), vehicle: saline): 100 % of control
- T/C (dose: 200.0 mg/kg/injection, schedule: Q01DX001 (ip), vehicle: saline): 91 % of control

SMILES: CSc1sc(C#N)c(N)c1N=Cc1ccccc1
- T/C (dose: 12.5 mg/kg/injection, schedule: Q04DX002 (ip), vehicle: saline with Tween-80): 106 % of control
- T/C (dose: 25.0 mg/kg/injection, schedule: Q04DX002 (ip), vehicle: saline with Tween-80): 101 % of control
- T/C (dose: 50.0 mg/kg/injection, schedule: Q04DX002 (ip), vehicle: saline with Tween-80): 97 % of control

SMILES: CCN1C(=O)c2cccc([N+](=O)[O-])c2C1=O
- T/C [9]: 101 % of control
- T/C [10]: 104 % of control

SMILES: N#CC(C(=O)CCCC(=O)Nc1cccc([N+](=O)[O-])c1)c1cccc2ccccc12 (stereo unspecified)
- T/C (dose: 60.0 mg/kg/injection, schedule: Q01DX005 (ip), vehicle: saline with Tween-80): 104 % of control
- T/C (dose: 120.0 mg/kg/injection, schedule: Q01DX005 (ip), vehicle: saline with Tween-80): 108 % of control
- T/C (dose: 240.0 mg/kg/injection, schedule: Q01DX005 (ip), vehicle: saline with Tween-80): 101 % of control

SMILES: O=C1c2ccccc2-n2c1nc1ccccc1c2=O
- T/C [6]: 102 % of control
- T/C [7]: 100 % of control
- T/C [8]: 107 % of control

SMILES: CCCCCCCCCCCCCCN1CCS(=O)(=O)CC1
- T/C (dose: 50.0 mg/kg/injection, schedule: Q01DX009 (ip), vehicle: Klucel (hydroxypropylcellulose) (HPC)): 89 % of control
- T/C [9]: 91 % of control
- T/C [10]: 90 % of control
